Assay results: publication PMC11369081, “Molecular mechanism of prolactin-releasing peptide recognition and signaling via its G protein-coupled receptor” (Cell Discovery, 2024)
Peptide text beside a SMILES is read from it.

What was measured:
Assay type in all cases: cell-based
PrRPR W127A = target: T1, PrRPR W127A (Homo sapiens, UniProt P49683, W127A); assay: BRET2 Gi dissociation, W127A; conditions: W127A (23.50), Gi-coupling, AD293 cells; mean ± S.E.M., n = 3; P <0.0001 vs WT; read-out: BRET2 pEC50 (converted)
T1 construct: expressed in transfected cells; host or cells: AD293 cells
T1 sequence (P49683 whole entry W127A): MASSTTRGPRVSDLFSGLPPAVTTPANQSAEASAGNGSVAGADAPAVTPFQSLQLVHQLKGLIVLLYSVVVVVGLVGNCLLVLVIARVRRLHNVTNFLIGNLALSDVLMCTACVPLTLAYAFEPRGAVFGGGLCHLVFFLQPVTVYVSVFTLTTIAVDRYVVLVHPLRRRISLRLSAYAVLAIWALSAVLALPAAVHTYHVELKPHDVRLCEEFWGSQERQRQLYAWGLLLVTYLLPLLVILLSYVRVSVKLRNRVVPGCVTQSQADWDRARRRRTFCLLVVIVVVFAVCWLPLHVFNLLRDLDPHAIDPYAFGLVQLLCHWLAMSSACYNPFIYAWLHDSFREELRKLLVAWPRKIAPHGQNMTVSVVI
Protocol: (§1) AD293 cells (Agilent) were propagated in Dulbecco’s Modified Eagle Medium (DMEM, Thermo Fisher Scientific), enriched with 10% fetal bovine serum (FBS, Thermo Fisher Scientific), and maintained at 37 °C in a 5% CO2 environment. Cells were then seeded in 6-well dishes at a density of 130,000–150,000 cells per mL and allowed to incubate overnight. On the next day, cells were transfected with plasmids at a 1:1:1:1 ratio for receptor:Gα-RLuc8:Gβ:Gγ-GFP2[52]. PEI MAX 40 K (BIOHUB) was utilized to form complex with the plasmids at a ratio of 3 µL PEI per µg of plasmids, in OptiMEM (Gibco-Thermo Fisher Scientific) at a concentration of 10 ng plasmids per µL OptiMEM. After 24 h of incubation, the culture was harvested by centrifugation with PBS. The cell suspension was then allocated into a white 384-well plate at a volume of 30 µL per well, followed by the addition of 10 µL of freshly prepared 50 µM coelenterazine 400a (Yeasen). Following a 15-min equilibration period, cells were treated with 10 µL of ligand for an additional 5 min. Plates were subsequently read in a BioTek Synergy H1 microplate reader (BioTek) equipped with 395 nm (RLuc8-coelenterazine 400a) and 510 nm (GFP2) emission filters. BRET2 ratios were calculated as the ratio of the GFP2 emission to RLuc8 emission. Data were normalized to the baseline response of the ligand. […]

PrRPR Y120A [1] = target: T2, PrRPR Y120A (Homo sapiens, UniProt P49683, Y120A); assay: BRET2 Gq dissociation, Y120A; conditions: Y120A (2.64), Gq-coupling, AD293 cells; mean ± S.E.M., n = 3; P <0.0001 vs WT; read-out: BRET2 pEC50 (converted)
T2 construct: expressed in transfected cells; host or cells: AD293 cells
T2 sequence (P49683 whole entry Y120A): as the sequence (P49683 whole entry W127A) above, with Y120A, A127W counted along it
Protocol: as §1, with “Following a 15-min equilibration period, cells were treated with 10 µL of ligand for an additional 5 min.” left out, “emission.” for “emission. Data were normalized to the baseline response of the ligand.”
(§2) Supplementary Fig. S4 | Effects of mutations in the ligand-binding pocket and G protein intereface of Gq coupled PrRPR by BRET2 assay. […] BRET2 assay signals were measured after stimulation with PrRP20. […]

PrRPR Q317A = target: T3, PrRPR Q317A (Homo sapiens, UniProt P49683, Q317A); assay: BRET2 Gq dissociation, Q317A; conditions: Q317A (7.35), Gq-coupling, AD293 cells; mean ± S.E.M., n = 3; P <0.0001 vs WT; read-out: BRET2 pEC50 (converted)
T3 construct: Flag; expressed in transfected cells; host or cells: AD293 cells
T3 sequence (P49683 whole entry Q317A): as the sequence (P49683 whole entry W127A) above, with A127W, Q317A counted along it
Protocol: as §1, with “Following a 15-min equilibration period, cells were treated with 10 µL of ligand for an additional 5 min.” left out, “emission.” for “emission. Data were normalized to the baseline response of the ligand.”
as §2

PrRPR L210A = target: T4, PrRPR L210A (Homo sapiens, UniProt P49683, L210A); assay: BRET2 Gq dissociation, L210A; conditions: L210A (ECL2), Gq-coupling, AD293 cells; mean ± S.E.M., n = 3; P <0.0001 vs WT; read-out: BRET2 pEC50 (converted)
T4 construct: expressed in transfected cells; host or cells: AD293 cells
T4 sequence (P49683 whole entry L210A): as the sequence (P49683 whole entry W127A) above, with A127W, L210A counted along it
Protocol: as §1, with “Following a 15-min equilibration period, cells were treated with 10 µL of ligand for an additional 5 min.” left out, “emission.” for “emission. Data were normalized to the baseline response of the ligand.”
as §2

PrRPR N298A = target: T5, PrRPR N298A (Homo sapiens, UniProt P49683, N298A); assay: BRET2 Gq dissociation, N298A; conditions: N298A (6.55), Gq-coupling, AD293 cells; mean ± S.E.M., n = 3; P 0.0042 vs WT; read-out: BRET2 pEC50 (converted)
T5 construct: Flag; expressed in transfected cells; host or cells: AD293 cells
T5 sequence (P49683 whole entry N298A): as the sequence (P49683 whole entry W127A) above, with A127W, N298A counted along it
Protocol: as §1, with “Following a 15-min equilibration period, cells were treated with 10 µL of ligand for an additional 5 min.” left out, “emission.” for “emission. Data were normalized to the baseline response of the ligand.”
as §2

PrRPR Q141A = target: T6, PrRPR Q141A (Homo sapiens, UniProt P49683, Q141A); assay: BRET2 Gi dissociation, Q141A; conditions: Q141A (3.32), Gi-coupling, AD293 cells; mean ± S.E.M., n = 3; P 0.0002 vs WT; read-out: BRET2 pEC50 (converted)
T6 construct: expressed in transfected cells; host or cells: AD293 cells
T6 sequence (P49683 whole entry Q141A): as the sequence (P49683 whole entry W127A) above, with A127W, Q141A counted along it
Protocol: as §1

PrRPR V208A = target: T7, PrRPR V208A (Homo sapiens, UniProt P49683, V208A); assay: BRET2 Gq dissociation, V208A; conditions: V208A (ECL2), Gq-coupling, AD293 cells; mean ± S.E.M., n = 3; P 0.0347 vs WT; read-out: BRET2 pEC50 (converted)
T7 construct: expressed in transfected cells; host or cells: AD293 cells
T7 sequence (P49683 whole entry V208A): as the sequence (P49683 whole entry W127A) above, with A127W, V208A counted along it
Protocol: as §1, with “Following a 15-min equilibration period, cells were treated with 10 µL of ligand for an additional 5 min.” left out, “emission.” for “emission. Data were normalized to the baseline response of the ligand.”
as §2

PrRPR Y225A = target: T8, PrRPR Y225A (Homo sapiens, UniProt P49683, Y225A); assay: BRET2 Gi dissociation, Y225A; conditions: Y225A (5.38), Gi-coupling, AD293 cells; mean ± S.E.M., n = 3; P <0.0001 vs WT; read-out: BRET2 pEC50 (converted)
T8 construct: Flag; expressed in transfected cells; host or cells: AD293 cells
T8 sequence (P49683 whole entry Y225A): as the sequence (P49683 whole entry W127A) above, with A127W, Y225A counted along it
Protocol: as §1

PrRPR F313A = target: T9, PrRPR F313A (Homo sapiens, UniProt P49683, F313A); assay: BRET2 Gi dissociation, F313A; conditions: F313A (7.31), Gi-coupling, AD293 cells; mean ± S.E.M., n = 3; P <0.0001 vs WT; read-out: BRET2 pEC50 (converted)
T9 construct: Flag; expressed in transfected cells; host or cells: AD293 cells
T9 sequence (P49683 whole entry F313A): as the sequence (P49683 whole entry W127A) above, with A127W, F313A counted along it
Protocol: as §1

PrRPR L203A = target: T10, PrRPR L203A (Homo sapiens, UniProt P49683, L203A); assay: BRET2 Gq dissociation, L203A; conditions: L203A (ECL2), Gq-coupling, AD293 cells; mean ± S.E.M., n = 3; P 0.0021 vs WT; read-out: BRET2 pEC50 (converted)
T10 construct: expressed in transfected cells; host or cells: AD293 cells
T10 sequence (P49683 whole entry L203A): as the sequence (P49683 whole entry W127A) above, with A127W, L203A counted along it
Protocol: as §1, with “Following a 15-min equilibration period, cells were treated with 10 µL of ligand for an additional 5 min.” left out, “emission.” for “emission. Data were normalized to the baseline response of the ligand.”
as §2

PrRPR T117A = target: T11, PrRPR T117A (Homo sapiens, UniProt P49683, T117A); assay: BRET2 Gq dissociation, T117A; conditions: T117A (2.61), Gq-coupling, AD293 cells; mean ± S.E.M., n = 3; P <0.0001 vs WT; read-out: BRET2 pEC50 (converted)
T11 construct: expressed in transfected cells; host or cells: AD293 cells
T11 sequence (P49683 whole entry T117A): as the sequence (P49683 whole entry W127A) above, with T117A, A127W counted along it
Protocol: as §1, with “Following a 15-min equilibration period, cells were treated with 10 µL of ligand for an additional 5 min.” left out, “emission.” for “emission. Data were normalized to the baseline response of the ligand.”
as §2

PrRPR Y120A [2] = target: T2, PrRPR Y120A; assay: BRET2 Gi dissociation, Y120A; conditions: Y120A (2.64), Gi-coupling, AD293 cells; mean ± S.E.M., n = 3; P <0.0001 vs WT; read-out: BRET2 pEC50 (converted)
Protocol: as §1

With `CC[C@H](C)[C@H](NC(=O)CNC(=O)[C@H](CCCNC(=N)N)NC(=O)[C@H](CO)NC(=O)[C@H](C)NC(=O)[C@H](Cc1ccc(O)cc1)NC(=O)[C@H](Cc1c[nH]c2ccccc12)NC(=O)[C@H](C)NC(=O)[C@@H]1CCCN1C(=O)[C@H](CC(N)=O)NC(=O)[C@@H](NC(=O)[C@H](CC(=O)O)NC(=O)[C@@H]1CCCN1C(=O)[C@@H](N)[C@@H](C)O)[C@@H](C)CC)C(=O)N[C@@H](CCCNC(=N)N)C(=O)N1CCC[C@H]1C(=O)N[C@H](C(=O)NCC(=O)N[C@@H](CCCNC(=N)N)C(=O)N[C@@H](Cc1ccccc1)C(N)=O)C(C)C` [PrRP20] (H-TPDINPAWYASRGIRPVGRF-NH2) as the compound, how does the EC50 (PrRPR W127A) read?
Its EC50 is 0.49 µM.

What about the EC50 (PrRPR Y120A [1]) of the same compound?
The EC50 was 0.191 µM.

What about the EC50 (PrRPR Q317A) of the same compound?
Its EC50 is 0.309 µM.

And the EC50 (PrRPR L210A)?
The EC50 was 0.00708 µM.

What about the EC50 (PrRPR N298A) of the same compound?
Its EC50 is 0.00295 µM.

What about the EC50 (PrRPR Q141A) of the same compound?
Its EC50 is 0.00759 µM.

What about the EC50 (PrRPR V208A) of the same compound?
The EC50 was 0.00245 µM.

And the EC50 (PrRPR Y225A)?
Its EC50 is 0.55 µM.

What about the EC50 (PrRPR F313A) of the same compound?
Its EC50 is 0.0148 µM.

And the EC50 (PrRPR L203A)?
The EC50 was 0.00309 µM.

What about the EC50 (PrRPR T117A) of the same compound?
Its EC50 is 0.107 µM.

And the EC50 (PrRPR Y120A [2])?
The EC50 was 3.39 µM.
